According to PubChem BioAssay (NCI):
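Five compound concentrations were applied to cells in 96-well plates for 48 hours; endpoints were derived by simple linear interpolation of the resulting dose-response curve. GI50 is the concentration that inhibits growth by half. TGI denotes the concentration required for complete inhibition of growth.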

What was measured:
Experiment in all cases: NCI-60 cell line screen, 48 h
ACHN renal = test system: ACHN renal
BT-549 breast = test system: BT-549 breast
EKVX NSCLC = test system: EKVX NSCLC
M14 melanoma = test system: M14 melanoma
NCI-H226 lung = test system: NCI-H226 lung
NCI/ADR-RES ovarian = test system: NCI/ADR-RES ovarian
OVCAR-5 ovarian = test system: OVCAR-5 ovarian
SK-OV-3 ovarian = test system: SK-OV-3 ovarian
T-47D breast = test system: T-47D breast
UACC-257 melanoma = test system: UACC-257 melanoma

Structure (SMILES) | GI50 (ACHN renal) | TGI (ACHN renal) | GI50 (BT-549 breast) | TGI (BT-549 breast) | GI50 (EKVX NSCLC) | TGI (EKVX NSCLC) | GI50 (M14 melanoma) | TGI (M14 melanoma) | GI50 (NCI-H226 lung) | TGI (NCI-H226 lung) | GI50 (NCI/ADR-RES ovarian) | TGI (NCI/ADR-RES ovarian) | GI50 (OVCAR-5 ovarian) | TGI (OVCAR-5 ovarian) | GI50 (SK-OV-3 ovarian) | TGI (SK-OV-3 ovarian) | GI50 (T-47D breast) | TGI (T-47D breast) | GI50 (UACC-257 melanoma) | TGI (UACC-257 melanoma)
CN(C)CCCn1c2nc(=O)[nH]c(=O)c-2nc2cc(Cl)c(Cl)cc21 | 3.46 µM | 11.8 µM | 19.5 µM | 34.7 µM | 13.8 µM | 28.5 µM | 3.68 µM | 13 µM | 2.58 µM | 9.28 µM | 7.9 µM | > 100 µM | 14.2 µM | 30.4 µM | 22.3 µM | 65.6 µM | 1.76 µM | 5.86 µM | 2.23 µM | 5.66 µM
O=C1CCS/C(=N\S(=O)(=O)c2ccc(N3N=C4c5ccccc5CC4C3c3cccs3)cc2)N1C(=O)c1ccccc1 (stereo not drawn) | 5.18 µM | 18.5 µM | 4.77 µM | > 100 µM | 22.1 µM | > 100 µM | 10.8 µM | 27.2 µM | 15.9 µM | 41 µM | 32.9 µM | > 100 µM | 25.8 µM | 54.3 µM | 52.8 µM | > 100 µM | > 100 µM | > 100 µM | 0.334 µM | 20.6 µM
NC1=Nc2cc(OCCCN3Cc4ccccc4C3)c(OCC3CC3)cc2C12CCCC2 | 3.44 µM | 11.9 µM | 2.26 µM | 7.84 µM | 3.18 µM | 11.8 µM | 1.85 µM | 3.47 µM | 3.72 µM | 21 µM | 2.91 µM | 12 µM | 5.99 µM | 19.1 µM | 4.48 µM | 17.4 µM | 1.82 µM | 4.54 µM | 2.2 µM | 3.94 µM
Fc1ccc2[nH]cc(SSc3c[nH]c4ccc(F)cc34)c2c1 | 4.34 µM | 34.3 µM | 4.94 µM | 24.4 µM | 3.03 µM | 15.7 µM | 5.29 µM | > 100 µM | 2.7 µM | 7.86 µM | 7.1 µM | > 100 µM | 12.7 µM | 39.9 µM | 6.13 µM | 22.8 µM | 2.54 µM | 20.5 µM | 8.51 µM | 25.3 µM
COc1ccccc1-c1cc(=O)c2ccc(OC)c(OC)c2o1 |  | > 100 µM |  | > 100 µM |  | > 100 µM |  | > 100 µM |  | > 100 µM |  | > 100 µM |  | > 100 µM |  | > 100 µM |  | 75.5 µM |  | > 100 µM
COc1cc(OC)c(C(=O)/C=C/c2cccc(OC(C)=O)c2)cc1CC=C(C)C | 10.1 µM | 29.2 µM | 6.28 µM | 36.6 µM | 30.2 µM | > 50 µM | 7.3 µM | 18.2 µM | 12.8 µM | 40.7 µM | 7.62 µM | 31.3 µM | 11.9 µM | 22.5 µM | 10.9 µM | 28.2 µM | 4.15 µM | 16.7 µM | 10.4 µM | 36.8 µM
O=C1NN(c2ccccc2)C(=O)/C1=C/c1ccc(Br)o1 | 13.3 µM | > 49.4 µM |  | 17.2 µM | 1.54 µM | 36.6 µM |  | 16.2 µM | 13.5 µM | 34.7 µM | 15.8 µM | 54.8 µM | 14.2 µM | 30.6 µM | 26.7 µM | > 61.4 µM | 18.9 µM | 52.3 µM | 15.4 µM | 37.3 µM
COc1ccc(OC)c2c(=S)c3ccccc3[nH]c12 |  | > 100 µM |  | > 100 µM |  | > 100 µM |  | > 100 µM |  | > 21.5 µM |  | > 100 µM |  | > 100 µM |  | > 100 µM |  | > 100 µM |  | > 100 µM
COc1ccc2c(c1)C1(C(=O)N2)C(C#N)=C(c2ccccc2)Nc2c1c(-c1ccccc1)nn2-c1ccccc1 (stereo not drawn) | 6.16 µM | 19.4 µM | 2.28 µM | 8.03 µM | 4.44 µM | 22.2 µM | 2.44 µM | 7.32 µM | 3.8 µM | 16.4 µM | 31.9 µM | > 100 µM | 5.46 µM | 19.8 µM | 2.08 µM | 5.14 µM | 2.94 µM | 12.5 µM | 16 µM | 31.5 µM
COc1cc2c(cc1OCCCCOc1ccc(-c3nc4ccccc4s3)cc1)N=C[C@@H]1CCCN1C2=O | 0.742 µM | 2.59 µM | 0.93 µM | 2.38 µM | 2.56 µM | 6.39 µM | 0.908 µM | 2.39 µM | 1.71 µM | 3.89 µM | 1.49 µM | 5.17 µM | 0.861 µM | 3.86 µM | 1.92 µM | 5.08 µM | 0.339 µM | 1.45 µM | 2.63 µM | 7.06 µM
O=[N+]([O-])c1ccc2nc3ccccc3cc2c1 |  | 14.9 µM |  | 21.7 µM |  | 22.9 µM |  | 18.1 µM |  | 8.97 µM |  | 3.47 µM |  | 7.06 µM |  | 20.7 µM |  | 15.4 µM |  | 5.86 µM
COC1=C(Br)C(=O)C2=C(C1=O)C1C3=C(C(=O)C=CC3=O)C2c2ccccc21 (stereo not drawn) | 14.8 µM | 34.5 µM | 16.8 µM | 38.3 µM | 5.81 µM | 22.2 µM | 33.4 µM | 80.4 µM | 21 µM | 46.4 µM | 18.8 µM | 61.5 µM | 22.3 µM | 98.6 µM | 45.6 µM | > 100 µM | 3.16 µM | 21.7 µM | 38.2 µM | > 100 µM
COc1ccc(-c2cc(=O)c3c(OC)c(OC)c(OC)c(OC)c3o2)c(OC)c1 |  | 84.8 µM |  | > 100 µM |  | > 100 µM |  | 46.7 µM |  | > 100 µM |  | 67.3 µM |  | > 100 µM |  | > 100 µM |  | 59.5 µM |  | 49.5 µM
COc1ccc(/C=C/NC=O)cc1 |  | > 100 µM |  | > 100 µM |  | > 100 µM |  | > 100 µM |  | > 100 µM |  | > 100 µM |  | > 100 µM |  | > 100 µM |  | > 100 µM |  | > 100 µM
NC1CCC(N[C@@H]2C[C@H]2c2ccccc2)CC1 (stereo partly drawn) | > 100 µM | > 100 µM | > 100 µM | > 100 µM | > 100 µM | > 100 µM | > 100 µM | > 100 µM | > 100 µM | > 100 µM | > 100 µM | > 100 µM | > 100 µM | > 100 µM | > 100 µM | > 100 µM | > 100 µM | > 100 µM | > 100 µM | > 100 µM
C/C(=N\N=C(N)N)C(CN(C)C)C(c1ccccc1)c1c(O)c2ccccc2oc1=O (stereo not drawn) |  | > 100 µM |  | > 100 µM |  | > 100 µM |  | > 100 µM |  | > 100 µM |  | > 100 µM |  | > 100 µM |  | > 100 µM |  | > 100 µM |  | > 100 µM
CC(=O)OC1Oc2ccccc2-c2oc(=O)c(-c3cc4ccccc4oc3=O)cc21 (stereo not drawn) | 14.1 µM | 29.6 µM | 18.6 µM | 40.1 µM | 26.4 µM | 74.6 µM | 36.6 µM | > 100 µM | 17.1 µM | 35.4 µM | 22.5 µM | 51.3 µM | 35 µM | > 100 µM | 13.7 µM | 30 µM | 21.3 µM | 51.8 µM | 14.1 µM | 36.6 µM
N#C/C(=C\c1ccc(Br)cc1)n1nnc2ccccc21 | 0.521 µM | 2.01 µM | 0.566 µM | 4.85 µM | 1.41 µM | 7.48 µM | 0.386 µM | 3.44 µM | 1.4 µM | 6.75 µM | 0.323 µM | 11 µM | 1.13 µM | 3.26 µM | 5.11 µM | 22.1 µM | 0.376 µM | 4.74 µM | 1.19 µM | 4.26 µM
O=C(CC1C=CCS1(=O)=O)NCc1ccccc1 (stereo not drawn) |  | > 100 µM |  | > 100 µM |  | > 100 µM |  | > 100 µM |  | > 100 µM |  | > 100 µM |  | > 100 µM |  | > 100 µM |  | > 100 µM |  | > 100 µM
